Values of other authors in US20240398651A1 (Neuro-Innovators, LLC., priority 2021, published 2024).

Assays:
[1] = previous clinical trials, compared with aspirin
[2] = in vivo

**Q.** With O=C1CCc2cc(OCCCCc3nnnn3C3CCCCC3)ccc2N1 [Cilostazol] as the molecule, how does the hemorrhagic events [1] read?
**A.** fewer hemorrhagic events

**Q.** And the “incidence of recurrent stroke” value [1]?
**A.** significantly reduce the incidence of recurrent stroke

**Q.** And the elimination half-life [2]?
**A.** 11 to 13 h
